# Experimental data published in patent US6291470A, “Indole derivatives process for producing the same and medicinal uses of the same” (Toray Industries, Inc., priority 1992, dated 2001).
# Tested on: delayed type hypersensitivity
# Assay: Mouse Delayed Type Hypersensitivity Reaction Suppression Test-2 (donor spleen cells, subcutaneous administration)
# Assay type: in vivo
# Settings: C57BL/6 spleen cells; subcutaneous everyday from day of sensitization, totally 8 days; BALB/c
# From the text: BALB/c mice (male, 7 weeks old) were used, and each group consisted of 4-5 mice. Spleen cells (1×10^7 ) obtained from a donor mouse (C57BL/6) was subcutaneously administered to sensitize the mice. On Day 7 from the sensitization, the spleen cells (5×10^6) of the donor were subcutaneously administered on the right hing leg and spleen cells (5×10^6) obtained from a mouse of the same line as the recipient mice were subcutaneously administered on the left footpad. Twenty four hours later, the thicknesses of the right and left footpads were measured with a dial thickness gage, and the difference in thicknesses of the right and left footpads before the induction of the reaction and 24 hours after the induction of the reaction was employed as the index of the degree of the reaction.
# The test compound was dissolved in 10% DMSO-water and was subcutaneously administered everyday from the day of sensitization to the day of induction of the reaction, totally 8 days. In the control group, 10% DMSO-water alone was administered in the same manner. The volume of administration was 10 ml/kg in both study groups and in the control group. Delayed Type Hypersensitivity Reaction=(thickness of right foodpad after induction-thickness of right footpad before induction)-(thickness of […] before induction) [formula]
# wherein C means delayed type hypersensitivity reaction of the group to which the test compound was administered and D means the delayed type hypersensitivity reaction of the group to which vehicle was administered.
smiles,measurement,value
"Oc1ccc2c3c1O[C@H]1c4[nH]c5ccccc5c4C[C@@]4(O)[C@@H](C2)N(CC2CC2)CC[C@]314 [NTI, reference compound]",% Suppression,60%
